Source: patent publication US20240239811A1, “5-(5-(PIPERIDIN-4-YL)THIENO[3,2-C]PYRAZOL-2-YL]INDAZOLE DERIVATIVES AND RELATED COMPOUNDS AS MODULATORS FOR SPLICING NUCLEIC ACIDS AND FOR THE T” (REMIX THERAPEUTICS INC., priority 2020, published 2024)
Counter-ions that a name gives are not always drawn.

Legend:
Format in all cases: cell-based
HTT mRNA = test: Splicing assay (RT-qPCR) monitoring HTT splice variants, canonical (CJ) and alternative (AJ) junction; details: 50% response, A673 or K562 cell line, 24 hours; for IC50: decrease in CJ mRNA; for AC50: increase in AJ mRNA
Method: (§1) Compounds described herein were used to modulate RNA transcript abundance in cells. The expression of a target mRNA was measured by detecting the formation of an exon-exon junction in the canonical transcript (CJ). A compound mediated exon-inclusion event was detected by observing an increase in formation of a new junction with an alternative exon (AJ). Real-time qPCR assays were used to detect these splicing switches and interrogate the potency of various compounds towards different target genes. A high-throughput real time quantitative PCR (RT-qPCR) assay was developed to measure these two isoforms of the mRNA (CJ and AJ) for an exemplary gene, HTT, together with a control housekeeping gene, GAPDH or GUSB or PPIA, used for normalization. Briefly, the A673 or K562 cell line was treated with various compounds described herein (e.g., compounds of Formula (I)). After treatment, the levels of the HTT mRNA targets were determined from each sample of cell lysate by cDNA synthesis followed by qPCR.
• Cells-to-CT 1-step kit: ThermoFisher A25602, Cells-to-CT lysis reagent: ThermoFisher 4391851C, TaqMan™ Fast Virus 1-Step Master Mix: ThermoFisher 4444436 • GAPDH: VIC-PL, ThermoFisher 4326317E (Assay: Hs99999905_ml)—used for K562/suspension cell lines • GUSB: VIC-PL, ThermoFisher 4326320E (Assay: Hs99999908_ml)—used for K562/suspension cell lines • PPIA: VIC-PL, ThermoFisher 4326316E (Assay: Hs99999904_ml)—used for A673/adherent cell lines
(§2) The A673 cell line was cultured in DMEM with 10% FBS. Cells were diluted with full growth media and plated in a 96-well plate (15,000 cells in 100ul media per well). The plate was incubated at 37° C. with 5% CO2 for 24 hours to allow cells to adhere. An 11-point 3-fold serial dilution of the compounds was made in DMSO then diluted in media in an intermediate plate. Compounds were transferred from the intermediate plate to the cell plate with the top dose at a final concentration of 10 uM in the well. Final DMSO concentration was kept at or below 0.25%. The cell plate was returned to the incubator at 37° C. with 5% CO2 for an additional 24 hours.
(§3) The K562 cell line was cultured in IMDM with 10% FBS. For K562, cells were diluted with full growth media and plated in either a 96-well plate (50,000 cells in 50 uL media per well) or a 384-well plate (8,000-40,000 cells in 45 uL media per well). An 11-point 3-fold serial dilution of the compounds were made in DMSO then diluted in media in an intermediate plate. Compound was transferred from the intermediate plate to the cell plate with the top dose at a final concentration of 10 uM in the well. Final DMSO concentration was kept at or below 0.25%. Final volume was 100 uL for 96-well plate and 50 uL for 384-well plate. The cell plate was then placed in an incubator at 37° C. with 5% CO2 for 24 hours.
The cells were then gently washed with 50 uL-100 uL cold PBS before proceeding to addition of lysis buffer. 30 uL-50 uL of room temperature lysis buffer with DNAse I (and optionally RNAsin) was added to each well. Cells were shaken/mixed thoroughly at room temperature for 5-10 minutes for lysis to take place and then 3 uL-5 uL of room temperature stop solution was added and wells were shaken/mixed again. After 2-5 minutes, the cell lysate plate was transferred to ice for RT-qPCR reaction setup. The lysates could also be frozen at −80° C. for later use.
In some cases, a direct lysis buffer was used. An appropriate volume of 3X lysis buffer (10 mM Tris, 150 mM NaCl, 1.5%-2.5% Igepal and 0.1-1 U/uL RNAsin, pH 7.4) was directly added to either K562 or A673 cells in media and mixed by pipetting 3 times. The plates were then incubated at room temperature with shaking/rocking for 20-50 minutes to allow for lysis to take place. After this time, the cell lysate plate was transferred to ice to set up for the RT-qPCR reactions. The lysates could also be frozen at −80° C. for later use. […]

HTT CJ mRNA = test: Gene panel canonical junction qPCR assay, HTT; details: Table 6, decrease in CJ mRNA, read-out: HTT IC50 (decrease in CJ mRNA levels)
Method: as §1, §2, §3
(§4) The data analysis was performed by first determining the ΔCt vs the housekeeper gene. This ΔCt was then normalized against the DMSO control (ΔΔCt) and converted to RQ (relative quantification) using the 2^(−ΔΔCt) equation. The RQ were then converted to a percentage response by arbitrarily setting an assay window of 3.5 ΔCt for HTT-CJ and an assay window of 9 ΔCt for HTT-AJ. […] The percentage response was then fitted to the 4 parametric logistic equation to evaluate the concentration dependence of compound treatment. The increase in AJ mRNA is reported as AC50 (compound concentration having 50% response in AJ increase) while the decrease in CJ mRNA levels is reported as IC50 (compound concentration having 50% response in CJ decrease).
(§5) Additional studies were carried out for a larger panel of genes using the protocol provided above. The junction between flanking upstream and downstream exons was used to design canonical junction qPCR assays. At least one of the forward primer, reverse primer or the CY5-labeled 5′ nuclease probe (with 3′ quencher such as ZEN/Iowa Black FQ) was designed to overlap with the exon junction to capture the CJ mRNA transcript. BLAST was used to confirm the specificity of the probeset and parameters such as melting temperature, GC content, amplicon size, and primer dimer formation are considered during their design. Data for the decrease in CJ mRNA levels for three exemplary genes (HTT, SMN2, and Target C) analyzed in this panel are reported as IC50 (compound concentration having […] in CJ decrease).

SMN2 CJ mRNA = test: Gene panel canonical junction qPCR assay, SMN2; details: Table 6, decrease in CJ mRNA, read-out: SMN2 IC50 (decrease in CJ mRNA levels)
Method: as §1, §2, §3, §4, §5

Target C CJ mRNA = test: Gene panel canonical junction qPCR assay, Target C; details: Table 6, decrease in CJ mRNA, read-out: Target C IC50 (decrease in CJ mRNA levels)
Method: as §1, §2, §3, §4, §5

IC50 (HTT mRNA) [nM] | IC50 (HTT CJ mRNA) [nM] | IC50 (SMN2 CJ mRNA) [nM] | IC50 (Target C CJ mRNA) [nM] | SMILES | AC50 (HTT mRNA) [nM]
1000 to 10000 | 1000 to 10000 | 100 to 1000 | 1000 to 10000 | CC1CN(c2cc3sc(-c4cc(F)c5nn(C)cc5c4)nc3s2)CCN1C (stereo not shown) [Compound 128, 5-[5-(3,4-dimethylpiperazin-1-yl)thieno[2,3-d][1,3]thiazol-2-yl]-7-fluoro-2-methylindazole] | 1000 to 10000
< 100 | < 100 | < 100 | < 100 | Cc1cn2cc(-c3nc4sc(C5CCNCC5)cc4s3)cc(F)c2n1 [Compound 130, 4-(2-[8-fluoro-2-methylimidazo[1,2-a]pyridin-6-yl]thieno[2,3-d][1,3]thiazol-5-yl)piperidine hydrochloride] | < 100
1000 to 10000 | 1000 to 10000 | 1000 to 10000 | 1000 to 10000 | Cn1cc2c(F)cc(-c3nc4sc(C5CCNCC5)cc4s3)cc2n1 [Compound 131, 4-fluoro-2-methyl-6-[5-(piperidin-4-yl)thieno[2,3-d][1,3]thiazol-2-yl]indazole] | 1000 to 10000
< 100 | < 100 | < 100 | 100 to 1000 | Cc1nc2c(F)cc(-c3nc4sc(C5CCNCC5)cc4s3)cc2o1 [Compound 132, 4-fluoro-2-methyl-6-[5-(piperidin-4-yl)thieno[2,3-d][1,3]thiazol-2-yl]-1,3-benzoxazole] | < 100
100 to 1000 | 100 to 1000 | 100 to 1000 | 100 to 1000 | Cc1cn2nc(-c3nc4sc(C5CCNCC5)cc4s3)cc2c(C)n1 [Compound 133, 4-(2-[4,6-dimethylpyrazolo[1,5-a]pyrazin-2-yl]thieno[2,3-d][1,3]thiazol-5-yl)piperidine] | 100 to 1000
100 to 1000 | 100 to 1000 | < 100 | 100 to 1000 | Cn1cc2cc(-c3nc4sc(N5CCNCC5)cc4s3)cc(F)c2n1 [Compound 134, 7-fluoro-2-methyl-5-[5-(piperazin-1-yl)thieno[2,3-d][1,3]thiazol-2-yl]indazole] | < 100
100 to 1000 | 100 to 1000 | < 100 | 100 to 1000 | CC1CN(c2cc3sc(-c4cc(F)c5nn(C)cc5c4)nc3s2)CCN1 (stereo not shown) [Compound 135, 7-fluoro-2-methyl-5-[5-(3-methylpiperazin-1-yl)thieno[2,3-d][1,3]thiazol-2-yl]indazole] | 100 to 1000
> 10000 | > 10000 | 100 to 1000 | > 10000 | Cn1cc2cc(-c3nc4sc(N5CCNC6(CC6)C5)cc4s3)cc(F)c2n1 [Compound 136, 5-(5-[4,7-diazaspiro[2.5]octan-7-yl]thieno[2,3-d][1,3]thiazol-2-yl)-7-fluoro-2-methylindazole] | > 10000
100 to 1000 | 100 to 1000 | < 100 | 100 to 1000 | CCNC1CCN(c2cc3sc(-c4cc(F)c5nn(C)cc5c4)nc3s2)CC1 [Compound 137, N-ethyl-1-[2-(7-fluoro-2-methylindazol-5-yl)thieno[2,3-d][1,3]thiazol-5-yl]piperidin-4-amine] | 100 to 1000
< 100 | < 100 | < 100 | < 100 | Cc1cn2cc(-c3nc4sc(C5CCNCC5)cc4s3)cc(Cl)c2n1 [Compound 139] | < 100
< 100 | < 100 | < 100 | 100 to 1000 | Cc1cn2cc(-c3nc4sc(C5CCNCC5)cc4s3)cc(C)c2n1 [Compound 140, 4-(2-[2,8-dimethylimidazo[1,2-a]pyridin-6-yl]thieno[2,3-d][1,3]thiazol-5-yl)piperidine hydrochloride] | < 100
100 to 1000 | 100 to 1000 | < 100 | 1000 to 10000 | CN1CCN(c2cc3sc(-c4cc(F)c5nn(C)cc5c4)nc3s2)CC1 [Compound 141, 7-fluoro-2-methyl-5-[5-(4-methylpiperazin-1-yl)thieno[2,3-d][1,3]thiazol-2-yl]indazole] | 100 to 1000
100 to 1000 | 100 to 1000 | < 100 | 1000 to 10000 | Cn1cc2cc(-c3nc4sc(N5CCNC(C)(C)C5)cc4s3)cc(F)c2n1 [Compound 142, 5-[5-(3,3-dimethylpiperazin-1-yl)thieno[2,3-d][1,3]thiazol-2-yl]-7-fluoro-2-methylindazole] | 100 to 1000
1000 to 10000 | 1000 to 10000 | 100 to 1000 | 1000 to 10000 | Cn1cc2cc(-c3nc4sc(N5CCC(NC(C)(C)C)C5)cc4s3)cc(F)c2n1 (stereo not shown) [Compound 143, N-tert-butyl-1-[2-(7-fluoro-2-methylindazol-5-yl)thieno[2,3-d][1,3]thiazol-5-yl]pyrrolidin-3-amine] | 1000 to 10000
1000 to 10000 | 1000 to 10000 | < 100 | > 10000 | Cn1cc2cc(-c3nc4sc(N5CCN6CCCC6C5)cc4s3)cc(F)c2n1 (stereo not shown) [Compound 144, 7-fluoro-5-(5-[hexahydro-1H-pyrrolo[1,2-a]pyrazin-2-yl]thieno[2,3-d][1,3]thiazol-2-yl)-2-methylindazole] | 100 to 1000
100 to 1000 | 100 to 1000 | < 100 | 100 to 1000 | CN1CC2(C1)CN(c1cc3sc(-c4cc(F)c5nn(C)cc5c4)nc3s1)C2 [Compound 146, 7-fluoro-2-methyl-5-(5-[6-methyl-2,6-diazaspiro[3.3]heptan-2-yl]thieno[2,3-d][1,3]thiazol-2-yl)indazole] | 100 to 1000

SMILES | IC50 (HTT mRNA) [nM] | IC50 (HTT CJ mRNA) [nM] | IC50 (SMN2 CJ mRNA) [nM] | IC50 (Target C CJ mRNA) [nM] | AC50 (HTT mRNA) [nM]
CN1CCC(N(C)c2cc3sc(-c4cc(F)c5nn(C)cc5c4)nc3s2)CC1 [Compound 145, N-[2-(7-fluoro-2-methylindazol-5-yl)thieno[2,3-d][1,3]thiazol-5-yl]-N,1-dimethylpiperidin-4-amine] | > 10000 | > 10000 | 100 to 1000 | > 10000 | > 10000
